Measured values taken from patent US11524951B2, “2-(2,4,5-substituted-anilino)pyrimidine compounds” (AstraZeneca AB, priority 2011, dated 2022).

How the values were obtained:
Assay type in all cases: cell-based
[1] = target: T1, Exon19 deletion EGFR (Homo sapiens, UniProt P00533, DEL746-750); experiment: Exon19 deletion EGFR (activating single mutant) cellular phosphorylation assay; conditions: PC9 human lung cells (Exon 19 deletion EGFR); endogenous p-EGFR in cell lysates by ELISA; 2 h with compound; read-out: Assay 1 (IC50)
T1 construct: Assays to measure cellular phosphorylation of endogenous p-EGFR in cell lysates; endogenous in cells; host or cells: PC9 (human lung cell line)
T1 sequence (P00533 with tags, fused parts or gaps DEL746-750): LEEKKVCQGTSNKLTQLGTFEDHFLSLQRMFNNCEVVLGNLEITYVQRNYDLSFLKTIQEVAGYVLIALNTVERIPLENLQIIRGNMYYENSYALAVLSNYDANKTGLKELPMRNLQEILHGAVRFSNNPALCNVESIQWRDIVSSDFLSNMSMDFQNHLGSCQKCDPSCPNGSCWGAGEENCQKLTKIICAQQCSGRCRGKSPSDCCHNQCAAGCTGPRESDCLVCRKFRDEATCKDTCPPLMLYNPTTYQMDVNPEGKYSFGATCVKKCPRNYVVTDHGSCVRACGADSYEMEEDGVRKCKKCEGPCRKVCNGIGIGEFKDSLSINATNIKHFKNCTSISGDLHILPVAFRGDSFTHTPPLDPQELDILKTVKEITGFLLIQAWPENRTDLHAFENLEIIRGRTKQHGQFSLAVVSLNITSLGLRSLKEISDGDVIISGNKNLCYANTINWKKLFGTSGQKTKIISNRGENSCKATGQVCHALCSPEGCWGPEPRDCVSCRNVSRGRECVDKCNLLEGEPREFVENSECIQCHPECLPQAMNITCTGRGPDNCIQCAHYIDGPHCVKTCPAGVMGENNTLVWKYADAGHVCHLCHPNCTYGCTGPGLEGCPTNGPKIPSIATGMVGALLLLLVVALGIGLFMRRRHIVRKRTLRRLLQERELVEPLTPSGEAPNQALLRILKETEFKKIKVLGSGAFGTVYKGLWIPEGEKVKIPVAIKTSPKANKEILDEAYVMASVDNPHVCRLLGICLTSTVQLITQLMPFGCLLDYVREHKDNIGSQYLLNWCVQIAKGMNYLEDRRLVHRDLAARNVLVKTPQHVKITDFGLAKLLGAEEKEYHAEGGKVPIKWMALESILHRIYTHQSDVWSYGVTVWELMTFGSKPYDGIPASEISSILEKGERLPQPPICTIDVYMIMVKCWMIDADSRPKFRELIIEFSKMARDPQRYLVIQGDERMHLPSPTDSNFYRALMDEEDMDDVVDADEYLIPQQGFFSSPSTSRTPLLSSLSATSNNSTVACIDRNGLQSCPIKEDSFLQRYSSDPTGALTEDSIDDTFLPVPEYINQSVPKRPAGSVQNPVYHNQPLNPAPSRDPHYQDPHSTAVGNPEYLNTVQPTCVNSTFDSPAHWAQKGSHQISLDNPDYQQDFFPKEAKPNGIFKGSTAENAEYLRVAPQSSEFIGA
Description: Assay 1: Exon19 Deletion EGFR (Activating Single Mutant) Cellular Phosphorylation Assay
The human lung cell line PC9 (Exon 19 deletion EGFR) were obtained from the American type Culture Collection. […] Cells were grown in a humidified incubator at 37° C. with 5% CO2. Assays to measure cellular phosphorylation of endogenous p-EGFR in cell lysates were carried out according to the protocol described in the R&D Systems DuoSet IC Human Phospho-EGF R ELISA (R&D Systems catalogue number #DYC1095). 40 μL of cells were seeded (10000 cells/well) in growth medium in Corning black, clear-bottomed 384-well plates and incubated at 37° C. with 5% CO2 overnight. […] Plates were incubated for a further 2 h, then following aspiration of medium, 40 μL 1× lysis buffer was added to each well. Greiner black high bind 384-well plates were coated with capture antibody and then blocked with 3% BSA. Following removal of block, […], of lysate were transferred to the Greiner black high bind 384-well plates and incubated for 2 hours. Following aspiration and washing of the plates with PBS, 20 μL of detection antibody were added and incubated for 2 hours. […] The data obtained with each compound was exported into a suitable software package (such as Origin) to perform curve fitting analysis.

[2] = target: T2, L858R/T790M EGFR (Homo sapiens, UniProt P00533, L858R/T790M); experiment: L858R/T790M EGFR (double mutant) cellular phosphorylation assay; conditions: NCI-H1975 human lung cells; endogenous p-EGFR in cell lysates by ELISA; 2 h with compound
T2 construct: Assays to measure cellular phosphorylation of endogenous p-EGFR in cell lysates; endogenous in cells; host or cells: NCI-H1975 (human lung cell line)
T2 sequence (P00533 25-1210 T790M/L858R): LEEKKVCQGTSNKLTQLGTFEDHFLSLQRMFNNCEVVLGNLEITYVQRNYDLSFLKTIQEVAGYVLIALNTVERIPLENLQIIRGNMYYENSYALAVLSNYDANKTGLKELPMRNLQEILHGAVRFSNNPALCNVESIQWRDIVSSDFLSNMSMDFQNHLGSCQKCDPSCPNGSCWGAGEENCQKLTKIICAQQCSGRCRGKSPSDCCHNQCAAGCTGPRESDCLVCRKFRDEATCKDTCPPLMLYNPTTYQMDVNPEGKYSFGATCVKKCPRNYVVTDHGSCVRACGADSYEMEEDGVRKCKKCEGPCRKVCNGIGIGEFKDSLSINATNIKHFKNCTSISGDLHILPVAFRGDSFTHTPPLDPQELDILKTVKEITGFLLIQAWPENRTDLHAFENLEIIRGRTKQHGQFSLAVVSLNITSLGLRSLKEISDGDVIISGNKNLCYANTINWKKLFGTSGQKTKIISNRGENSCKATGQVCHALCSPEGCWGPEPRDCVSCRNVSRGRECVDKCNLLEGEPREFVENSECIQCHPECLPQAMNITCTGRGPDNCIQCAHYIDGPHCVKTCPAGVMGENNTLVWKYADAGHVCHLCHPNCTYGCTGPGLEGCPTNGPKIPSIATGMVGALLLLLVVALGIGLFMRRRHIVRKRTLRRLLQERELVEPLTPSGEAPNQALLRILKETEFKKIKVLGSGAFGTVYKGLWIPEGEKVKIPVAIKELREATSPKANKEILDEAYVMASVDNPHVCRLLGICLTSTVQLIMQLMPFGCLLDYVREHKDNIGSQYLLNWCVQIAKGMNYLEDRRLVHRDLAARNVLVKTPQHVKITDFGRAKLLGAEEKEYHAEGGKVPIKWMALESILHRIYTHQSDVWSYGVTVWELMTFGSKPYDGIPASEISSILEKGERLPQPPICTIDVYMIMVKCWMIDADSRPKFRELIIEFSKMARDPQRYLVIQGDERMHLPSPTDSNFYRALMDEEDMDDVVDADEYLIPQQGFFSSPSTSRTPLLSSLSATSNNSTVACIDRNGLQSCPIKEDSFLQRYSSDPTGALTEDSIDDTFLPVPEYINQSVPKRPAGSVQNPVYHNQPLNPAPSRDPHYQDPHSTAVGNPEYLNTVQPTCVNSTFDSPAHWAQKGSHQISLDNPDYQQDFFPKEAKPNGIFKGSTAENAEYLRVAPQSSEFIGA
Description: Assay 2: L858R/T790M EGFR (Double Mutant) Cellular Phosphorylation Assay
The human lung cell lines NCI-H1975 were obtained from the American type Culture Collection. […] Cells were grown in a humidified incubator at 37° C. with 5% CO2.
Assays to measure cellular phosphorylation of endogenous p-EGFR in cell lysates were carried out according to the protocol described in the R&D Systems DuoSet IC Human Phospho-EGF R ELISA (R&D Systems catalogue number #DYC1095).
40 μL of cells were seeded (10000 cells/well) in growth medium in Corning black, clear-bottomed 384-well plates and incubated at 37° C. with 5% CO2 overnight. […] Plates were incubated for a further 2 h and following aspiration of medium, 40 μL 1× lysis buffer was added to each well. Greiner black high bind 384-well plates were coated with capture antibody and then blocked with 3% BSA. Following removal of block, 15 μL of lysate were transferred to the Greiner black high bind 384-well plates and incubated for 2 hours. Following aspiration and washing of the plates with PBS, 20 μL of detection antibody were added and incubated for 2 hours. […] 20 μL QuantaBlu stop solution were added to plates and fluorescence read on an Envision plate reader using
The data obtained with each compound was exported into a suitable software package (such as Origin) to perform curve fitting analysis.

[3] = target: T3, Wild-type EGFR (Homo sapiens, UniProt P00533); experiment: Wild-type EGFR cellular phosphorylation assay; conditions: LoVo human colon cells; endogenous p-EGFR in cell lysates by ELISA; 2 h with compound, then stimulated 100 ng/ml for 10 minutes; read-out: Assay 3 (IC50)
T3 construct: Assays to measure cellular phosphorylation of endogenous p-EGFR in cell lysates; endogenous in cells; host or cells: LoVo (human colon cell line)
T3 sequence (P00533 25-1210): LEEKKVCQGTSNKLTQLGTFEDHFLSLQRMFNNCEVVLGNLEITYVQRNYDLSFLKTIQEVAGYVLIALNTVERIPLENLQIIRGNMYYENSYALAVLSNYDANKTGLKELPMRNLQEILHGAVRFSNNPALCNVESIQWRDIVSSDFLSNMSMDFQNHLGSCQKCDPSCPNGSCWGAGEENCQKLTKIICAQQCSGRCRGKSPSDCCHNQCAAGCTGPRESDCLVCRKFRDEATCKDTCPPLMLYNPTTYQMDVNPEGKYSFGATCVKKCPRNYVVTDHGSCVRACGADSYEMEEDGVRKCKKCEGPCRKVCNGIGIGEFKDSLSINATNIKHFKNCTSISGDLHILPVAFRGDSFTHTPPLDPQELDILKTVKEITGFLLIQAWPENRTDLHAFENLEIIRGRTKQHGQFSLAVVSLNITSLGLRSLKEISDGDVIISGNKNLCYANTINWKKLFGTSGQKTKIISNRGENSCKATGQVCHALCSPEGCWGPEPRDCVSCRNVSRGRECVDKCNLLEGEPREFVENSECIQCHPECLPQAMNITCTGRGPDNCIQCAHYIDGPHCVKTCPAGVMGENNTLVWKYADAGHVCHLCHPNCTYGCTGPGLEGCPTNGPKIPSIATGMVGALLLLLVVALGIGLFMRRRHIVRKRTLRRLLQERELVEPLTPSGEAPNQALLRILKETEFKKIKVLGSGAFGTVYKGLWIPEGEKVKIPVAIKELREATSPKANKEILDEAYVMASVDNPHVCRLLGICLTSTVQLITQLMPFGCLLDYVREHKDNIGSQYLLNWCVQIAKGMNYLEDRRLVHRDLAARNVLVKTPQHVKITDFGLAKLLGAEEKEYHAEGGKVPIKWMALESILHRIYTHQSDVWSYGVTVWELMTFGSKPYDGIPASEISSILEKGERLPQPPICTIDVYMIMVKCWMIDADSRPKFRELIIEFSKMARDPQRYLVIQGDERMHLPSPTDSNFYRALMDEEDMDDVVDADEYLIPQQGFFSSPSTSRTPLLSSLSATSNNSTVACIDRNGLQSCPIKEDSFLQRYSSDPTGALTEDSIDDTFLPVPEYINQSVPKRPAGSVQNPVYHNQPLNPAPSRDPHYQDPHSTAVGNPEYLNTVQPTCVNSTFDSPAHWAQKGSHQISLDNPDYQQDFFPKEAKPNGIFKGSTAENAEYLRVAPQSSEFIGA
Description: Assay 3: Wild-Type EGFR Cellular Phosphorylation Assay
The human colon cell line LoVo were obtained from the American type Culture Collection. […] Cells were grown in a humidified incubator at 37° C. with 5% CO2. Assays to measure cellular phosphorylation of endogenous p-EGFR in cell lysates were carried out according to the protocol described in the R&D Systems DuoSet IC Human Phospho-EGF R ELISA (R&D Systems catalogue number #DYC1095). 40 μL of cells were seeded (15000 cells/well) in growth medium in Corning black, clear-bottomed 384-well plates and incubated at 37° C. with 5% CO2 overnight. […] Plates were incubated for a further 2 h then stimulated with 100 ng/ml for 10 minutes and following aspiration of medium, 40 μL 1× lysis buffer was added to each well. Greiner black high bind 384-well plates were coated with capture antibody and then blocked with 3% BSA. […] Following aspiration and washing of the plates with PBS, 20 μL of detection antibody were added and incubated for 2 hours. […] The data obtained with each compound was exported into a suitable software package (such as Origin) to perform curve fitting analysis.

| IC50 [1] [nM] | IC50 [2] [nM] | IC50 [3] [nM] | Compound |
| --- | --- | --- | --- |
| 5.61 | 11.4 | 318 | C=CC(=O)Nc1cc(Nc2ncc(C#N)c(-c3c[nH]c4ccccc34)n2)c(OC)cc1N1CCN(C)CC1 [Example 27, N-(5-{[5-Cyano-4-(1H-indol-3-yl)pyrimidin-2-yl]amino}-4-methoxy-2-{4-methylpiperazin-1-yl}phenyl)prop-2-enamide] |
| 1.23 | 0.885 | 46.5 | C=CC(=O)Nc1cc(Nc2ncc(C#N)c(-c3cn(C)c4ccccc34)n2)c(OC)cc1N(C)CCN(C)C [Example 29, N-(5-{[5-Cyano-4-(1-methylindol-3-yl)pyrimidin-2-yl]amino}-2-{2-dimethylaminoethyl-methylamino}-4-methoxyphenyl)prop-2-enamide] |
| 37.5 | 7.34 | 2510 | C=CC(=O)Nc1cc(Nc2ncc(Cl)c(-c3cnn4ccccc34)n2)c(OC)cc1N(C)CCN1CCOCC1 [Example 31, N-{5-[(5-Chloro-4-pyrazolo[1,5-a]pyridin-3-ylpyrimidin-2-yl)amino]-4-methoxy-2-[methyl-(2-morpholin-4-ylethyl)amino]phenyl}prop-2-enamide] |
| 138 | 23.8 | 10500 | C=CC(=O)Nc1cc(Nc2ncc(Cl)c(-c3cnn4ccccc34)n2)c(OC)cc1N(C)CCN1CCN(C)CC1 [Example 32, N-(5-{[5-Chloro-4-pyrazolo[1,5-a]pyridin-3-ylpyrimidin-2-yl]amino}-4-methoxy-2-{methyl-[2-(4-methylpiperazin-1-yl)ethyl]amino}phenyl)prop-2-enamide] |

Second part, the compound before the results:

| Compound | IC50 [1] [nM] | IC50 [2] [nM] | IC50 [3] [nM] |
| --- | --- | --- | --- |
| C=CC(=O)Nc1cc(Nc2ncc(Cl)c(-c3cn(C)c4ccccc34)n2)c(OC)cc1N1CC[C@@H](N(C)C)C1 [Example 21, N-(5-{[5-Chloro-4-(1-methylindol-3-yl)pyrimidin-2-yl]amino}-2-{(3R)-3-dimethylaminopyrrolidin-1-yl}-4-methoxyphenyl)prop-2-enamide] | 2.95 | 2.34 | 128 |
| C=CC(=O)Nc1cc(Nc2ncc(C#N)c(-c3cn(C)c4ccccc34)n2)c(OC)cc1N1CC[C@@H](N(C)C)C1 [Example 22, N-(5-{[5-Cyano-4-(1-methylindol-3-yl)pyrimidin-2-yl]amino}-2-{(3R)-3-dimethylaminopyrrolidin-1-yl}-4-methoxyphenyl)prop-2-enamide] | 2.14 | 1.52 | 73.4 |
| C=CC(=O)Nc1cc(Nc2ncc(C#N)c(-c3cn(C)c4ccccc34)n2)c(OC)cc1N1CCN(C)CC1 [Example 23, N-(5-{[5-Cyano-4-(1-methylindol-3-yl)pyrimidin-2-yl]amino}-4-methoxy-2-{4-methylpiperazin-1-yl}phenyl)prop-2-enamide] | 16.9 | 17.6 | 3020 |
| C=CC(=O)Nc1cc(Nc2ncc(Cl)c(-c3c[nH]c4ccccc34)n2)c(OC)cc1N1CC[C@@H](N(C)C)C1 [Example 24, N-(5-{[5-Chloro-4-(1H-indol-3-yl)pyrimidin-2-yl]amino}-2-{(3R)-3-dimethylaminopyrrolidin-1-yl}-4-methoxyphenyl)prop-2-enamide] | 1.33 | 0.886 | 35.7 |
| C=CC(=O)Nc1cc(Nc2ncc(Cl)c(-c3c[nH]c4ccccc34)n2)c(OC)cc1N(C)CCN(C)C [Example 25, N-(5-{[5-Chloro-4-(1H-indol-3-yl)pyrimidin-2-yl]amino}-2-{2-dimethyl-aminoethyl-methylamino}-4-methoxyphenyl)prop-2-enamide] | 0.581 | 0.238 | 10.9 |
| C=CC(=O)Nc1cc(Nc2ncc(Cl)c(-c3cn(C)c4ccccc34)n2)c(OC)cc1N(C)CCN(C)C [Example 26, N-(5-{[5-Chloro-4-(1-methylindol-3-yl)pyrimidin-2-yl]amino}-2-{2-dimethylaminoethyl-methylamino}-4-methoxyphenyl)prop-2-enamide] | 2.29 | 1.93 | 58.3 |
